Measured values: patent publication US6417235B2, “Method and use of α-amino-β-mercapto-ethane derivatives as dicarbonyl scavengers for treatment of conditions resulting from protein, lipid, and DNA damage” (University of Kentucky Research Foundation, priority 2000, dated 2002)

Legend:
[1] = system: HaCat keratinocytes; assay: AGE-photosensitization of human skin cells, growth inhibition under solar simulated light; conditions: 10 mM
Experimental: Human HaCat keratinocytes growing on 35 mm dishes were exposed to solar simulated light (1.2 kJ/m^2 UVB and 23 kJ/m^2 UVA) in the presence or absence of AGE-BSA as a model of a protein with advanced glycation endproducts. Control populations were treated in exactly the same way as described above, but were not exposed to solar simulated light (SSL).

[2] = system: CF-3 cells; assay: Protection of fibroblasts from alpha-dicarbonyl stress (cell count after 72 hour exposure); type: cell-based, human
Experimental: (§1) A continuous cell line of human epidermal keratinocytes (HaCat cells) and human dermal fibroblasts (CF-3 cells) were routinely cultured in 75 cm^2 flasks and split biweekly in DMEM containing 10% fetal bovine serum and kept in a humidified atmosphere containing 5% CO2 at 37° C. Human keratinocytes were split using 5% trypsin and human fibroblasts employed 1% trypsin. All experiments were carried out on 6 well dishes (Falcon USA), where keratinocytes were seeded at 2×10^4 cells/well and fibroblasts at 4×10^4 cells/well. Cells were left overnight to attach to the plate and the appropriate carbonyl scavenger was then added 15 minutes prior to the addition of the alpha-dicarbonyl stress compounds glyoxal or methylglyoxal. Following 72 hour exposure to the stress compound, cells were counted with a Coulter counter. the protective effects of the alpha-dicarbonyl scavengers were assessed by comparing the growth of untreated cells with cells exposed to alpha-carbonyl stress +/− test compound.

[3] = system: histone H1; assay: Histone H1 crosslinking by 12% SDS-PAGE with silver staining; type: biochemical, calf; conditions: 5 mM; histone H1, ADP-ribose reaction system
Experimental: The following screening scheme is used (see Table 1): AGE-fluorescence is determined at the beginning and after five days of incubation. Test compounds that are inherently fluorescent (designated false negatives) were identified by the initial fluorescence measurement (See Table 1, NADH for example). Since these are compounds of uncertain activity, they are diverted directly to the second stage of the screen. Aminoguanidine, a known glycation inhibitory agent, was used as a positive control for suppression of the increase on AGE-fluorescence. After five days incubation and plate reading, fluorescence quenchers (designated false positives) are excluded by measuring the quenching activity of the test compound by addition of AGE modified protein having known fluorescence activity to one microtiter plate well containing test compound in the complete reaction mixture. For this, AGE-BSA is used as the AGE-type fluorescence standard. This AGE-BSA test excludes false positives compounds that function by fluorescence quenching. If fluorescence quenching occurs the test compound is excluded from further screening. […] The protein is visualized by silver staining of the gel. […] A compound that passes the first and second stage of the screen is considered a glycation inhibitor and is further evaluated for biological activity as described below. […]

[4] = system: HaCat cells; assay: Protection of keratinocytes from alpha-dicarbonyl stress (cell count after 72 hour exposure); type: cell-based, human
Experimental: as §1

[5] = system: ΦX-174 DNA; assay: AGE-BSA photosensitized cleavage of ΦX-174 DNA under solar simulated light; type: biochemical; conditions: solar simulated light, AGE-BSA as photosensitizer
Experimental: Glycated Proteins as Photosensitizers of DNA Damage in Skin Photoaging. D-Penicillamine inhibits genotoxic consequences of AGE-photosensitization. Accumulation of AGEs on dermal elastin and collagen occurs during normal skin aging in humans. The hypothesis was tested that the intra- and extracellular accumulation of the complex yellow-brown AGE-chromophores contributes to skin aging and carcinogenesis induced by chronic exposure to sunlight. As a possible molecular mechanisms for a detrimental synergism of AGE-formation and exposure to sunlight, photosensitized DNA damage by AGEs was assessed in a simple in vitro system. Irradiation of covalently closed circular ΦX-174 DNA with increasing doses of solar simulated light (SSL) in the presence of AGE-BSA was used to detect photosensitized DNA nicking as a measure of DNA photodamage (panel A). […] Addition of several antioxidants modulated the photosensitization effect (panel C).

CC(C)(S)[C@@H](N)C(=O)O [D-Penicillamine]
toxic effects on HaCat cells [1]: no toxic effects | reversal of the photosensitization effect ([1]; AGE-BSA with SSL): completely reversed the photosensitization effect | protection from alpha-dicarbonyl stress ([2]; FIG. 14): protection | protection from methylglyoxal induced alpha-dicarbonyl stress ([2]; FIG. 15): protection | inhibition of histone H1 crosslinking [3]: inhibit histone H1 crosslinking | protection from alpha-dicarbonyl stress ([4]; FIG. 14): protection | protection from methylglyoxal induced alpha-dicarbonyl stress ([4]; FIG. 15): protection | effect on AGE-BSA photosensitized DNA cleavage [5]: inhibited the photosensitization effect of AGE-BSA in a dose dependent relationship
